Test results taken from patent US12448369B2 (Edgewise Therapeutics, Inc., priority 2023, dated 2025).

Tested on: Rabbit Psoas myofibrils (skeletal myosin ATPase)
Experiment: Myofibril ATPase assay, rabbit psoas (skeletal) myofibrils
Type: biochemical
Conditions: Y75 value (no ‡ mark); rabbit psoas myofibrils
Procedure, shortened: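 Values derive from concentration–response fits of NADH consumption rates at 340 nm, normalized to vehicle-only wells, as Y75 or Y125. Myofibril ATP turnover was linked to NADH via PK/LDH in Ca/EGTA-buffered PIPES, pH 7.0, and read over 75 min.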

Compound	Skeletal EC25
Cc1nc(C#N)ncc1[C@H](C)NC(=O)Cc1c(C)c2cc(F)ccc2[nH]c1=O [compound 1053]	40 nM
Cc1nc(C#N)cnc1[C@@H](C)NC(=O)Cc1c(C)c2c(C#N)c(F)ccc2[nH]c1=O (single isomer, unassigned) [compound 1]	110 nM
C[C@@H](NC(=O)Cc1c(C#N)c2cc(F)c(F)cc2[nH]c1=O)c1ccc(C#N)cn1 (single isomer, unassigned) [compound 2047]	30480 nM
Cc1c(CC(=O)N[C@@H](C)c2ccc(C#N)cn2)c(=O)[nH]c2cc(F)ccc12 [compound 1073]	100000 nM
N#Cc1cnc2c(n1)CC[C@@H]2NC(=O)Cc1cc2cc(F)c(F)cc2[nH]c1=O [compound 1083]	4150 nM
Cc1c(C2(C(=O)N[C@H]3CCc4cc(C#N)cnc43)CC2)c(=O)[nH]c2ccc(F)cc12 (single isomer, unassigned) [compound 2504]	100000 nM
Cc1nc(C#N)cnc1[C@H](C)NC(=O)Cc1c(C)c2c(F)c(F)ccc2[nH]c1=O [compound 1140]	0 nM
C[C@@H](NC(=O)Cc1cc2c(F)c(F)ccc2[nH]c1=O)c1ncc(F)cc1F [compound 33]	290 nM
C[C@H](NC(=O)Cc1c(C2CC2)c2cc(C#N)ccc2[nH]c1=O)c1ncc(C#N)cc1F [compound 1152]	3820 nM
Cc1c(F)ccc2[nH]c(=O)c(C(F)(F)C(=O)N[C@@H](C)c3ncc(C#N)cc3F)c(C#N)c12 (single isomer, unassigned) [compound 2520]	70 nM
C[C@@H](NC(=O)Cc1cc2c(F)cccc2[nH]c1=O)c1ccc(C#N)cn1 [compound 47]	430 nM
C[C@H](NC(=O)[C@H](C)c1cc2c(F)c(F)ccc2[nH]c1=O)c1ccc(F)cc1F (single isomer, unassigned) [compound 111]	110 nM
Cc1cc([C@H](C)NC(=O)Cc2c(O)c3c(C)c(F)ccc3[nH]c2=O)ncc1F [compound 1117]	100000 nM
Cc1cc(C#N)nnc1[C@@H](C)NC(=O)Cc1c(C)c2cc(F)ccc2[nH]c1=O [compound 1058]	29210 nM
Cc1c([C@H](C)C(=O)N[C@H](C)c2ncc(C#N)cc2F)c(=O)[nH]c2ccc(F)c(F)c12 (single isomer, unassigned) [compound 2601]	40 nM
C[C@H](NC(=O)Cc1c(C2CC2)c2c(F)cccc2[nH]c1=O)c1ncc(C#N)cc1F [compound 1144]	90 nM
C[C@H](NC(=O)Cc1cc2c(F)cccc2[nH]c1=O)c1ccc(F)cc1F [compound 131]	20 nM
Cc1c(C(F)(F)C(=O)N[C@@H](C)c2ncc(C#N)cn2)c(=O)[nH]c2ccc(F)c(C#N)c12 (single isomer, unassigned) [compound 2522]	140 nM

Tested on: Porcine atria myofibrils (atrial myosin ATPase)
Experiment: Myofibril ATPase assay, porcine atria myofibrils
Type: biochemical
Conditions: Y75 value (no ‡ mark); porcine atria myofibrils
Procedure, shortened: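 Atrial myofibril ATPase measured by NADH-coupled absorbance at 340 nm; vehicle-normalized slopes fitted to give Y75 or Y125 values.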

Compound	Atrial EC25
Cc1nc(C#N)ncc1[C@H](C)NC(=O)Cc1c(C)c2cc(F)ccc2[nH]c1=O [compound 1053]	120 nM
Cc1nc(C#N)cnc1[C@@H](C)NC(=O)Cc1c(C)c2c(C#N)c(F)ccc2[nH]c1=O (single isomer, unassigned) [compound 1]	70 nM
C[C@@H](NC(=O)Cc1c(C#N)c2cc(F)c(F)cc2[nH]c1=O)c1ccc(C#N)cn1 (single isomer, unassigned) [compound 2047]	25330 nM
Cc1c(CC(=O)N[C@@H](C)c2ccc(C#N)cn2)c(=O)[nH]c2cc(F)ccc12 [compound 1073]	53690 nM
N#Cc1cnc2c(n1)CC[C@@H]2NC(=O)Cc1cc2cc(F)c(F)cc2[nH]c1=O [compound 1083]	5800 nM
Cc1c(C2(C(=O)N[C@H]3CCc4cc(C#N)cnc43)CC2)c(=O)[nH]c2ccc(F)cc12 (single isomer, unassigned) [compound 2504]	100000 nM
Cc1nc(C#N)cnc1[C@H](C)NC(=O)Cc1c(C)c2c(F)c(F)ccc2[nH]c1=O [compound 1140]	80 nM
C[C@@H](NC(=O)Cc1cc2c(F)c(F)ccc2[nH]c1=O)c1ncc(F)cc1F [compound 33]	170 nM
C[C@H](NC(=O)Cc1c(C2CC2)c2cc(C#N)ccc2[nH]c1=O)c1ncc(C#N)cc1F [compound 1152]	59910 nM
Cc1c(F)ccc2[nH]c(=O)c(C(F)(F)C(=O)N[C@@H](C)c3ncc(C#N)cc3F)c(C#N)c12 (single isomer, unassigned) [compound 2520]	140 nM
C[C@@H](NC(=O)Cc1cc2c(F)cccc2[nH]c1=O)c1ccc(C#N)cn1 [compound 47]	4480 nM
C[C@H](NC(=O)[C@H](C)c1cc2c(F)c(F)ccc2[nH]c1=O)c1ccc(F)cc1F (single isomer, unassigned) [compound 111]	100 nM
Cc1cc([C@H](C)NC(=O)Cc2c(O)c3c(C)c(F)ccc3[nH]c2=O)ncc1F [compound 1117]	100000 nM
Cc1cc(C#N)nnc1[C@@H](C)NC(=O)Cc1c(C)c2cc(F)ccc2[nH]c1=O [compound 1058]	1920 nM
Cc1c([C@H](C)C(=O)N[C@H](C)c2ncc(C#N)cc2F)c(=O)[nH]c2ccc(F)c(F)c12 (single isomer, unassigned) [compound 2601]	40 nM
C[C@H](NC(=O)Cc1c(C2CC2)c2c(F)cccc2[nH]c1=O)c1ncc(C#N)cc1F [compound 1144]	290 nM
C[C@H](NC(=O)Cc1cc2c(F)cccc2[nH]c1=O)c1ccc(F)cc1F [compound 131]	70 nM
Cc1c(C(F)(F)C(=O)N[C@@H](C)c2ncc(C#N)cn2)c(=O)[nH]c2ccc(F)c(C#N)c12 (single isomer, unassigned) [compound 2522]	320 nM

Molecular target: T1, Porcine ventricle myofibrils (ventricular myosin ATPase) (Sus scrofa, UniProt P79293)
T1 construct: Myofibrils from porcine cardiac muscle was isolated from the left ventricle of Yucatan minipigs; tissue Exemplar Genetics; host or cells: left ventricle of Yucatan minipigs, myofibrils prepared in house
Experiment: Myofibril ATPase assay, porcine ventricle myofibrils
Type: biochemical, porcine (Yucatan minipigs)
Conditions: Y75 value (no ‡ mark); porcine ventricle myofibrils
Procedure, shortened: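 ATPase activity of porcine left-ventricle myofibrils (Yucatan minipig) was followed through PK-LDH coupling as NADH loss at 340 nm, read every 1.5-2 min for 75 min. Slopes were normalised to vehicle wells and fitted to a 4-parameter logistic model. Values are Y75, the concentration giving a 25% drop in activity, or Y125 for activators.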

T1 sequence (P79293 whole entry): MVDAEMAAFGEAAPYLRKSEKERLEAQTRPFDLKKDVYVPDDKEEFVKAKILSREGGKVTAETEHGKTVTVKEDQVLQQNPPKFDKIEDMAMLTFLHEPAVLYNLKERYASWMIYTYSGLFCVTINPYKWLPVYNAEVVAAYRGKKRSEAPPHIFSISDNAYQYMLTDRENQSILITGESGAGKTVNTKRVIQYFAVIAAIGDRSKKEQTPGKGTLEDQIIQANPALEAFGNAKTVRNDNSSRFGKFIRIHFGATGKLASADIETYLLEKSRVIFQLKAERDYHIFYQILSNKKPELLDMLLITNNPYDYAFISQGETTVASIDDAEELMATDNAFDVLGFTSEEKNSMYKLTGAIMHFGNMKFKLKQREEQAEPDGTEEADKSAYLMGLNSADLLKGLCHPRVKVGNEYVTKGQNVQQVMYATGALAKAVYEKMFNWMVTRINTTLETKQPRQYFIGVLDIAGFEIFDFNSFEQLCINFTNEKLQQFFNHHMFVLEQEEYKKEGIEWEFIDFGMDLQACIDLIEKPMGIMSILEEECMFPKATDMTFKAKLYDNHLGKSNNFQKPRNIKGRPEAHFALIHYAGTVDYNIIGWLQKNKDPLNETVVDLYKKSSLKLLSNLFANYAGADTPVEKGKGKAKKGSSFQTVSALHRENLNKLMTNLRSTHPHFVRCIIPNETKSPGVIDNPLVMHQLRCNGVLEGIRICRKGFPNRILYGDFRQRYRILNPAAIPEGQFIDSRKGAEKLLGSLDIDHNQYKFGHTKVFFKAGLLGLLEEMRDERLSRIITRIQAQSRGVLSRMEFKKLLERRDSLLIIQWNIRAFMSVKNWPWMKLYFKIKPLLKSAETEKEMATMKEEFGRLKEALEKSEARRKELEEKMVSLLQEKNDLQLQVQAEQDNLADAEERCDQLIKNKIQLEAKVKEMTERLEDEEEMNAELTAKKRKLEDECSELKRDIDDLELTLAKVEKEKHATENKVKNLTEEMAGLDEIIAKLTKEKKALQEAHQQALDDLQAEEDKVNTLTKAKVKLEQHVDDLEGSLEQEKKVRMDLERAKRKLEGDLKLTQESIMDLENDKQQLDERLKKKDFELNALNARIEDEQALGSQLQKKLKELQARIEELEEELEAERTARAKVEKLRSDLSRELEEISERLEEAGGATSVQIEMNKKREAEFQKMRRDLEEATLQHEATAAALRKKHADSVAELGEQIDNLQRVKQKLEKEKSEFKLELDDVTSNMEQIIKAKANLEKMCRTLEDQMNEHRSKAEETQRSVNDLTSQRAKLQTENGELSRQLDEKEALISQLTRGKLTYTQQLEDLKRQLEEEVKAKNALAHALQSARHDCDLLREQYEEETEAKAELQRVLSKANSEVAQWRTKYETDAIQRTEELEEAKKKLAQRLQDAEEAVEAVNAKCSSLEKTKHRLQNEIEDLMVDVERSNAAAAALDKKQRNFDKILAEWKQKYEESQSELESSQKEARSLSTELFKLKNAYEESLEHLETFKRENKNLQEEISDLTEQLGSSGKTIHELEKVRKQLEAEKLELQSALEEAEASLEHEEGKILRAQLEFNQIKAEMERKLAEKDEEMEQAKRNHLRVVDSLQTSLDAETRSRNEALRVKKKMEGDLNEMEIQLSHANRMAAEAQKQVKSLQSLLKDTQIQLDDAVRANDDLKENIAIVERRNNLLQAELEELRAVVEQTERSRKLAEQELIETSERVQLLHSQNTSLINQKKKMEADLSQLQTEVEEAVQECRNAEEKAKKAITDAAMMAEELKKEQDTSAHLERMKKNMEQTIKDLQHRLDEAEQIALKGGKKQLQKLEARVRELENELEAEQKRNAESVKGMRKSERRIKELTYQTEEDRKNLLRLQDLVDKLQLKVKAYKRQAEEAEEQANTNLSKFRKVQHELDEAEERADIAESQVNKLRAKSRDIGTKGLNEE

Compound	Ventricular EC25
Cc1nc(C#N)ncc1[C@H](C)NC(=O)Cc1c(C)c2cc(F)ccc2[nH]c1=O [compound 1053]	220 nM
Cc1nc(C#N)cnc1[C@@H](C)NC(=O)Cc1c(C)c2c(C#N)c(F)ccc2[nH]c1=O (single isomer, unassigned) [compound 1]	140 nM
C[C@@H](NC(=O)Cc1c(C#N)c2cc(F)c(F)cc2[nH]c1=O)c1ccc(C#N)cn1 (single isomer, unassigned) [compound 2047]	47780 nM
Cc1c(CC(=O)N[C@@H](C)c2ccc(C#N)cn2)c(=O)[nH]c2cc(F)ccc12 [compound 1073]	89230 nM
N#Cc1cnc2c(n1)CC[C@@H]2NC(=O)Cc1cc2cc(F)c(F)cc2[nH]c1=O [compound 1083]	100000 nM
Cc1c(C2(C(=O)N[C@H]3CCc4cc(C#N)cnc43)CC2)c(=O)[nH]c2ccc(F)cc12 (single isomer, unassigned) [compound 2504]	100000 nM
Cc1nc(C#N)cnc1[C@H](C)NC(=O)Cc1c(C)c2c(F)c(F)ccc2[nH]c1=O [compound 1140]	60 nM
C[C@@H](NC(=O)Cc1cc2c(F)c(F)ccc2[nH]c1=O)c1ncc(F)cc1F [compound 33]	460 nM
C[C@H](NC(=O)Cc1c(C2CC2)c2cc(C#N)ccc2[nH]c1=O)c1ncc(C#N)cc1F [compound 1152]	7780 nM
Cc1c(F)ccc2[nH]c(=O)c(C(F)(F)C(=O)N[C@@H](C)c3ncc(C#N)cc3F)c(C#N)c12 (single isomer, unassigned) [compound 2520]	210 nM
C[C@@H](NC(=O)Cc1cc2c(F)cccc2[nH]c1=O)c1ccc(C#N)cn1 [compound 47]	4800 nM
C[C@H](NC(=O)[C@H](C)c1cc2c(F)c(F)ccc2[nH]c1=O)c1ccc(F)cc1F (single isomer, unassigned) [compound 111]	100000 nM
Cc1cc([C@H](C)NC(=O)Cc2c(O)c3c(C)c(F)ccc3[nH]c2=O)ncc1F [compound 1117]	46610 nM
Cc1cc(C#N)nnc1[C@@H](C)NC(=O)Cc1c(C)c2cc(F)ccc2[nH]c1=O [compound 1058]	6860 nM
Cc1c([C@H](C)C(=O)N[C@H](C)c2ncc(C#N)cc2F)c(=O)[nH]c2ccc(F)c(F)c12 (single isomer, unassigned) [compound 2601]	70 nM
C[C@H](NC(=O)Cc1c(C2CC2)c2c(F)cccc2[nH]c1=O)c1ncc(C#N)cc1F [compound 1144]	840 nM
C[C@H](NC(=O)Cc1cc2c(F)cccc2[nH]c1=O)c1ccc(F)cc1F [compound 131]	810 nM
Cc1c(C(F)(F)C(=O)N[C@@H](C)c2ncc(C#N)cn2)c(=O)[nH]c2ccc(F)c(C#N)c12 (single isomer, unassigned) [compound 2522]	720 nM
